Reference: patent US9505749B2, “Quinazolinone compounds and derivatives thereof” (AMGEN INC., priority 2012, dated 2016)
Read-outs that look alike come from different tables or passages of the source.

Key:
[1] = molecular target: PARP2 (Homo sapiens (Human), UniProt Q9UGN5); assay: PARP2 biochemical assay (BPS kit)
[2] = molecular target: 6×HIS-tankyrase 2 (946-1162) (Homo sapiens (Human), UniProt Q9H2K2); assay: Tankyrase 2 biochemical assay (AlphaLisa, PARsylation); settings: 250 nM NAD; read-out: TNKS2 IC50
[3] = test system: total β-catenin in SW480 colorectal cells; assay: Total β-catenin MSD 96-well plate assay for SW480 cells; settings: Homo sapiens, SW480, read-out: SW480-Total beta-catenin (TBC) IC50 IP
[4] = molecular target: PARP1 (Homo sapiens (Human), UniProt P09874); assay: PARP1 biochemical assay (Trevigen kit)
Source text: PARP1 biochemical assay was purchased as a kit from Trevigen (cat.#4676-096-K) and used per manufacturers recommendations.

[5] = molecular target: 6×HIS-tankyrase1 (1091-1325) (Homo sapiens (Human), UniProt O95271); assay: Tankyrase 1 biochemical assay (AlphaLisa, PARsylation); settings: read-out: TNKS1 IC50
[6] = test system: Axin2 accumulation in SW480 cells; assay: Axin2 384 immunofluorescence assay; assay type: cell-based; settings: Homo sapiens, read-out: Axin2 384 IF EC50

6×HIS-tankyrase1 (1091-1325), sequence (O95271 1091-1325): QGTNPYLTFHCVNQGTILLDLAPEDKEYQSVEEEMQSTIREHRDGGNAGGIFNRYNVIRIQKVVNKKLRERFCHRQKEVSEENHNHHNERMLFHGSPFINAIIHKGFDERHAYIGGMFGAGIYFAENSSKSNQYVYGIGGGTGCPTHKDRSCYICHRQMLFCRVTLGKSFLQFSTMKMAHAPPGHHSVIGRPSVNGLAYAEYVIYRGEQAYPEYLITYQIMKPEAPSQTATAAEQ
PARP2, sequence (Q9UGN5 whole entry): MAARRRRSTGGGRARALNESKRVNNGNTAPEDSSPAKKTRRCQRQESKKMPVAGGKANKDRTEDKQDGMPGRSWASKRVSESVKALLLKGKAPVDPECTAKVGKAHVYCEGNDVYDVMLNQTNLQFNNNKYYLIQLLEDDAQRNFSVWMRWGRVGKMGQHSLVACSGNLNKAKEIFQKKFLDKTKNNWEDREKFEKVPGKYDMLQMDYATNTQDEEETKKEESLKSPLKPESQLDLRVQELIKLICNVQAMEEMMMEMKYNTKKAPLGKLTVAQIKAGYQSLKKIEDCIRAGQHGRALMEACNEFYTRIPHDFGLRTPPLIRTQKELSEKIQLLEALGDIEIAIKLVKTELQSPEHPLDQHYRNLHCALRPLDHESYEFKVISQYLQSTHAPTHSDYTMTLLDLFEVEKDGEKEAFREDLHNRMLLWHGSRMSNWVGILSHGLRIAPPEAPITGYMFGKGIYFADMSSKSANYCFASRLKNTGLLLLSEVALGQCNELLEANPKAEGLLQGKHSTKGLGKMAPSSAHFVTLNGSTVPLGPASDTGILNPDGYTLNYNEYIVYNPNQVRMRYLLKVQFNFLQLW
PARP1, sequence (P09874 whole entry): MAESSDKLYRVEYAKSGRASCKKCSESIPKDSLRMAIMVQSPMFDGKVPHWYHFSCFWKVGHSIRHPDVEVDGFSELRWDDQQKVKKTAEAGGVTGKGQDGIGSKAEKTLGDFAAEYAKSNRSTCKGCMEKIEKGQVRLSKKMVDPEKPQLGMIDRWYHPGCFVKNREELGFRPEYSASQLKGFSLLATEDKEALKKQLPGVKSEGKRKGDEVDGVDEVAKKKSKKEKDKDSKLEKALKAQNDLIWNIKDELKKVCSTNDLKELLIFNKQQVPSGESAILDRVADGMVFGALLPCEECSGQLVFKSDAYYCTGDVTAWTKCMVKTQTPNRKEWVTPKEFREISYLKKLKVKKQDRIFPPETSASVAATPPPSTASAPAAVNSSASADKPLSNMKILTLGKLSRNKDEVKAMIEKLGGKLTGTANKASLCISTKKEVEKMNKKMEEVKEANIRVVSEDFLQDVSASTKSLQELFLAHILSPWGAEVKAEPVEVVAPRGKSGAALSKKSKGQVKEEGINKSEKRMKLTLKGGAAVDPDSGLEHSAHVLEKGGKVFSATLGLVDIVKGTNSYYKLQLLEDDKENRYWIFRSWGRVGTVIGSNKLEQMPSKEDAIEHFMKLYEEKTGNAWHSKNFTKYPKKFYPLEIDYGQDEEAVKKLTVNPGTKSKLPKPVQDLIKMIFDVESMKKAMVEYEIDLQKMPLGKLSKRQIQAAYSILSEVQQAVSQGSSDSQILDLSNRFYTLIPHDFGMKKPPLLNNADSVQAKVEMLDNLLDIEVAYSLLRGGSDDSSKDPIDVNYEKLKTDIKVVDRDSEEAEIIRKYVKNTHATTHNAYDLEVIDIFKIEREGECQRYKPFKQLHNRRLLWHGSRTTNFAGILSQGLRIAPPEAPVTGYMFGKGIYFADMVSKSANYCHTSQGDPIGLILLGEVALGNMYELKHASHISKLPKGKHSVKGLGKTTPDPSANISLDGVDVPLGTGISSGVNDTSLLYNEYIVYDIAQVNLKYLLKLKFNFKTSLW
6×HIS-tankyrase 2 (946-1162), sequence (Q9H2K2 946-1162): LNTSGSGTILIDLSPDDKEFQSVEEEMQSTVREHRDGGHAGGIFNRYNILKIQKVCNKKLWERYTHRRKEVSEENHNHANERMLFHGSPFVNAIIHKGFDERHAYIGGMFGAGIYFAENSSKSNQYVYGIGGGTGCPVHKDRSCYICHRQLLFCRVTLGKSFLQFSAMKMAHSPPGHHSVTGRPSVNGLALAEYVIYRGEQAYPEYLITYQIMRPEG

Structure (SMILES) | IC50 [1] | IC50 [2] | IC50 [3] | IC50 [4] | IC50 ([5]; 400 nM NAD, 60 minutes at RT) | EC50 ([6]; SW480 cells, 24 hours) | IC50 [5] | EC50 ([6]; SW480, 24 h)
O=C(CCCc1nc2ccccc2c(=O)[nH]1)N[C@H]1CC[C@H](OCc2ccccc2)C1 (stereo in doubt) [Example 62, N-((1R,3R)-3-(benzyloxy)cyclopentyl)-4-(4-oxo-3,4-dihydroquinazolin-2-yl)butanamide+N-((1S,3S)-3-(benzyloxy)cyclopentyl)-4-(4-oxo-3,4-dihydroquinazolin-2-yl)butanamide] | 2840 nM | 138 nM | > 10000 nM | 7680 nM | 587 nM | – | – | –
O=c1[nH]c(CCNC(=O)[C@H]2CC[C@H](c3nnc(-c4ccccc4)o3)CC2)nc2ccccc12 [Example 1, trans-N-(2-(4-oxo-3,4-dihydro-2-quinazolinyl)ethyl)-4-(5-phenyl-1,3,4-oxadiazol-2-yl)cyclohexanecarboxamide] | 3220 nM | 22.5 nM | 142 nM | – | 66.6 nM | 1390 nM | – | –
O=C(CCCc1nc2ccccc2c(=O)[nH]1)N1CCC(c2nnc(-c3cccc(Cl)c3)o2)CC1 [Example 3, 2-(4-(4-(5-(3-chlorophenyl)-1,3,4-oxadiazol-2-yl)-1-piperidinyl)-4-oxobutyl)-4(3H)-quinazolinone] | 414 nM | 2.54 nM | 41.7 nM | 3050 nM | 11 nM | 260 nM | – | –
O=C(CCCc1nc2ccccc2c(=O)[nH]1)N1CCC(c2nnc(-c3ccc(Cl)cc3)o2)CC1 [Example 4, 2-(4-(4-(5-(4-chlorophenyl)-1,3,4-oxadiazol-2-yl)piperidin-1-yl)-4-oxobutyl)quinazolin-4(3H)-one] | 961 nM | 2.06 nM | 36.4 nM | 2410 nM | 11 nM | 210 nM | – | –
O=C(CCCc1nc2ccccc2c(=O)[nH]1)N[C@H]1CC[C@H](c2nnc(-c3ccc(F)c(Cl)c3)o2)CC1 [Example 35, N-(trans-4-(5-(3-chloro-4-fluorophenyl)-1,3,4-oxadiazol-2-yl)cyclohexyl)-4-(4-oxo-3,4-dihydro-2-quinazolinyl)butanamide 2,2,2-trifluoroacetate] | 923 nM | 0.196 nM | 19.7 nM | – | 0.277 nM | 10.8 nM | – | –
Cc1cc(=O)[nH]c(SCCC(=O)N[C@H]2CC[C@H](c3nnc(-c4ccccc4)o3)CC2)n1 [Example 37, 3-((4-methyl-6-oxo-1,6-dihydropyrimidin-2-yl)thio)-N-((1r,4r)-4-(5-phenyl-1,3,4-oxadiazol-2-yl)cyclohexyl)propanamide] | > 170000 nM | 3.48 nM | 738 nM | > 85000 nM | 3.7 nM | – | – | –
Cn1c(=O)n(C2CCN(C(=O)CCCc3nc4ccccc4c(=O)[nH]3)CC2)c2ccc(Cl)cc21 [Example 45, 2-(4-(4-(5-chloro-3-methyl-2-oxo-2,3-dihydro-1H-benzimidazol-1-yl)-1-piperidinyl)-4-oxobutyl)-4(3H)-quinazolinone] | 1020 nM | 52.5 nM | 2340 nM | – | 73.7 nM | 4630 nM | – | –
O=C(CCCc1nc2ccccc2c(=O)[nH]1)N1CC=C(n2c(=O)[nH]c3ccccc32)CC1 [Example 46, 2-(4-oxo-4-(4-(2-oxo-2,3-dihydro-1H-benzimidazol-1-yl)-3,6-dihydro-1(2H)-pyridinyl)butyl)-4(3H)-quinazolinone trifluoroacetic acid] | – | 4.01 nM | 1360 nM | 2050 nM | 17.7 nM | 4780 nM | – | –
O=C(CCCc1nc2ccccc2c(=O)[nH]1)N1CCC(N2C(=O)C(F)(F)c3ccccc32)CC1 [Example 60, 2-(4-(4-(3,3-difluoro-2-oxo-2,3-dihydro-1H-indol-1-yl)-1-piperidinyl)-4-oxobutyl)-4(3H)-quinazolinone] | – | 28.9 nM | – | 4530 nM | – | – | 46 nM | 2410 nM
O=C(CCSc1nc2ccccc2c(=O)[nH]1)N1CCC(n2c(=O)[nH]c3cc(Cl)ccc32)CC1 [Example 82, 2-((3-(4-(5-chloro-2-oxo-2,3-dihydro-1H-benzo[d]imidazol-1-yl)piperidin-1-yl)-3-oxopropyl)thio)quinazolin-4(3H)-one] | 99.4 nM | 73.7 nM | 3310 nM | 1470 nM | 128 nM | – | – | –
O=C(CCc1nc2ccccc2c(=O)[nH]1)N[C@H]1CC[C@H](n2c(=O)[nH]c3ccccc32)CC1 [Example 84, N-(trans-4-(2-oxo-2,3-dihydro-1H-benzo[d]imidazol-1-yl)cyclohexyl)-3-(4-oxo-3,4-dihydroquinazolin-2-yl)propanamide] | 1030 nM | 0.671 nM | 433 nM | – | 1.44 nM | 1780 nM | – | –
O=C(CCc1nc2ccccc2c(=O)[nH]1)N[C@H]1CC[C@H](n2c(=O)[nH]c3ccc(Cl)cc32)CC1 [Example 86, N-((1r,4r)-4-(6-chloro-2-oxo-2,3-dihydro-1H-benzo[d]imidazol-1-yl)cyclohexyl)-3-(4-oxo-3,4-dihydroquinazolin-2-yl)propanamide] | 279 nM | 0.347 nM | 32.6 nM | – | 1.01 nM | 207 nM | – | –
O=C(CSc1nc2ccccc2c(=O)[nH]1)N[C@H]1CC[C@H](n2c(=O)[nH]c3cc(Cl)ccc32)CC1 [Example 87, N-((1r,4r)-4-(5-chloro-2-oxo-2,3-dihydro-1H-benzo[d]imidazol-1-yl)cyclohexyl)-2-((4-oxo-3,4-dihydroquinazolin-2-yl)thio)acetamide] | – | 2.52 nM | 7.27 nM | > 85000 nM | 0.0597 nM | 25.8 nM | – | –
O=C(CCSc1nc2ccccc2c(=O)[nH]1)N[C@H]1CC[C@H](n2c(=O)[nH]c3cc(Cl)ccc32)CC1 [Example 90, N-((1r,4r)-4-(5-chloro-2-oxo-2,3-dihydro-1H-benzo[d]imidazol-1-yl)cyclohexyl)-3-((4-oxo-3,4-dihydroquinazolin-2-yl)thio)propanamide] | 720 nM | 0.796 nM | 7.84 nM | – | 0.127 nM | 3.42 nM | – | –
O=C(CCSc1nc2ccccc2c(=O)[nH]1)N1CCN(c2n[nH]c3ccccc23)CC1 [Example 94, 2-((3-(4-(1H-indazol-3-yl)-1-piperazinyl)-3-oxopropyl)sulfanyl)-4(3H)-quinazolinone] | 89.5 nM | 6.3 nM | 2220 nM | 1230 nM | 12.1 nM | – | – | –
O=C(CCCc1nc2ccccc2c(=O)[nH]1)N[C@H]1CC[C@H](c2ncc(-c3ccccc3)o2)CC1 [Example 95, 4-(4-oxo-3,4-dihydro-2-quinazolinyl)-N-(trans-4-(5-phenyl-1,3-oxazol-2-yl)cyclohexyl)butanamide] | 1070 nM | 0.16 nM | 4.83 nM | 1930 nM | 0.0979 nM | – | – | –
N#Cc1ccc2c(c1)[nH]c(=O)n2[C@H]1CC[C@H](NC(=O)CSc2nc3ccccc3c(=O)[nH]2)CC1 [Example 103, N-((1r,4r)-4-(5-cyano-2-oxo-2,3-dihydro-1H-benzo[d]imidazol-1-yl)cyclohexyl)-2-((4-oxo-3,4-dihydroquinazolin-2-yl)thio)acetamide] | 2280 nM | 9.92 nM | 138 nM | – | 0.129 nM | 198 nM | – | –
O=C(CCSc1nc2ccccc2c(=O)[nH]1)N[C@H]1CC[C@H](c2nnc(-c3cccc(Cl)c3)o2)CC1 [Example 118, N-((1r,4r)-4-(5-(3-chlorophenyl)-1,3,4-oxadiazol-2-yl)cyclohexyl)-3-((4-oxo-3,4-dihydroquinazolin-2-yl)thio)propanamide] | 3280 nM | 4.98 nM | 1.2 nM | – | 0.107 nM | 3.34 nM | – | –
COc1cccc(-c2nnc([C@H]3CC[C@H](NC(=O)CCSc4nc5ccccc5c(=O)[nH]4)CC3)o2)c1 [Example 120, N-((1r,4r)-4-(5-(3-methoxyphenyl)-1,3,4-oxadiazol-2-yl)cyclohexyl)-3-((4-oxo-3,4-dihydroquinazolin-2-yl)thio)propanamide] | 3730 nM | 5.35 nM | 2.03 nM | – | 0.0647 nM | 2.33 nM | – | –
N#Cc1cccc(-c2nnc([C@H]3CC[C@H](NC(=O)CCc4nc5ccccc5c(=O)[nH]4)CC3)o2)c1 [Example 137, N-((1r,4r)-4-(5-(3-cyanophenyl)-1,3,4-oxadiazol-2-yl)cyclohexyl)-3-(4-oxo-3,4-dihydroquinazolin-2-yl)propanamide] | 4680 nM | 99.8 nM | 741 nM | – | 217 nM | 1820 nM | – | –
O=C(CCSc1cc(=O)n2ccccc2n1)N[C@H]1CC[C@H](c2nnc(-c3ccccc3)o2)CC1 [Example 144, 3-((4-oxo-4H-pyrido[1,2-a]pyrimidin-2-yl)sulfanyl)-N-(trans-4-(5-phenyl-1,3,4-oxadiazol-2-yl)cyclohexyl)propanamide] | > 170000 nM | 5.46 nM | 349 nM | > 85000 nM | 4.78 nM | – | – | –
O=C(CCSc1nc2ccc(F)cc2c(=O)[nH]1)N[C@H]1CC[C@H](c2nnc(-c3ccccc3)o2)CC1 [Example 145, 3-((6-fluoro-4-oxo-3,4-dihydro-2-quinazolinyl)sulfanyl)-N-(trans-4-(5-phenyl-1,3,4-oxadiazol-2-yl)cyclohexyl)propanamide] | 1120 nM | 5.02 nM | 7.66 nM | 3540 nM | 0.148 nM | – | – | –
